{"source": "patent US8609668B2", "about": "“Substituted triazolo[1,5-A]pyrimidines as antiviral agents” (Philadelphia Health & Education Corporation, priority 2006, dated 2013)", "origin": "cited, not measured here", "tested_on": "HBeAg secretion", "details": "in vivo and in vitro", "data": [{"molecule": "O=c1oc2c(O)c(O)cc3c(=O)oc4c(O)c(O)cc1c4c23", "note": "[Ellagic acid]", "values": [{"measurement": "secretion of HBeAg", "result": "specifically inhibit secretion of HBeAg"}]}]}
